# From US6943183B2 (Pfizer Inc, priority 2000, dated 2005)
# Molecular target: T1, SF9 affinity purified rat FPT (Rattus norvegicus, UniProt Q02293+Q04631)
# T1 construct: made in house; host or cells: Sf9 insect cells
# Test: PFT (FPT) inhibitory activity assay, radiolabeled farnesyl pyrophosphate and biotinyl peptide, streptavidin beads
# Type: biochemical
# Settings: HEPES buffer pH 7.4, 30° C., 30 minutes; read-out: FTase IC50
# Procedure: The PFT or FPT inhibitory activity of compounds of the present invention were assayed in HEPES buffer (pH 7.4) containing 5 mM potassium phosphate and 20 μM ZnCl2. The solution also contained 5 mM DTT (dithiothreitol), 5 mM MgCl2, and 0.1% PEG 8000. Assays were performed in 96 well plates (Wallec) and employed solutions composed of varying concentrations of a compound of the present invention in 10% DMSO (dimethylsulfoxide). […] After incubation at 30° C. for 30 minutes, the reaction was terminated by diluting the reaction 2.5-fold with a stop buffer containing 1.5 M magnesium acetate, 0.2 M H3PO4, 0.5% BSA (bovine serum albumin), and strepavidin beads (Amersham) at a concentration of 1.3 mg/mL. […] The assay was also carried out without 5 mM potassium phosphate.
row,Compound,IC50
1,"O=C(O)c1ccccc1S(=O)(=O)Cc1c(O[C@H](Cn2ccnc2)c2ccccc2)ccc2c1CCCC2=O [Compound 159, 2-{[(2-{[(1S)-2-(1H-Imidazol-1-yl)-1-phenylethyl]oxy}-5-oxo-5,6,7,8-tetrahydro-1-naphthalenyl)methyl]sulfonyl}benzoic Acid]",5.5 nM
2,"O=C(Nc1c(O[C@H](Cn2ccnc2)c2ccccc2)ccc2c1CCCC2=O)c1ccccn1 [Compound 40, Pyridine-2-carboxylic acid [2-((S)-2-imidazol-1-yl-1-phenyl-ethoxy)-5-oxo-5,6,7,8-tetrahydro-naphthalen-1-yl]-amide]",7.3 nM
3,CNC(=O)c1ccc(CCc2c(O[C@H](Cn3ccnc3)c3ccccc3)ccc3c2CCCC3=O)cc1 [Compound 29],0.1 nM
4,O=C1CCCc2c1ccc(O[C@H](Cn1ccnc1)c1ccccc1)c2CSC1CCCCC1 [Compound 117],1 nM
5,"CC(O)CNC(=O)c1ccccc1SCc1c(O[C@H](Cn2ccnc2)c2ccccc2)ccc2c1CCCC2=O (stereo partly drawn) [Compound 257, N-(2-Hydroxypropyl)-2-{[(2-{[(1S)-2-(1H-imidazol-1-yl)-1-phenylethyl]oxy}-5-oxo-5,6,7,8-tetrahydro-1-naphthalenyl)methyl]sulfanyl}benzamide]",0.2 nM
6,"COC(=O)c1ccc(S(=O)(=O)Cc2c(O[C@H](Cn3ccnc3)c3ccccc3)ccc3c2CCCC3=O)cc1 [Compound 155, Methyl 4-{[(2-{[(1S)-2-(1H-Imidazol-1-yl)-1-phenylethyl]oxy}-5-oxo-5,6,7,8-tetrahydro-1-naphthalenyl)methyl]sulfonyl}benzoate]",20 nM
7,O=C1CCCc2c1ccc(S[C@H](Cn1ccnc1)c1ccccc1)c2CCc1ccccc1 [Compound 63],0.2 nM
8,O=C1CCCc2c1ccc(O[C@H](Cn1ccnc1)c1ccccc1)c2-c1ccsc1 [Compound 35],15 nM
9,"O=C1CCCc2c1ccc(O[C@H](Cn1ccnc1)c1ccccc1)c2COc1cccc2ccccc12 [Compound 104, 6-((1S)-2-Imidazolyl-1-phenylethoxy)-5-(naphenyloxymethyl)-2,3,4-trihydronaphthalen-1-one]",5 nM
10,"O=C(NCCO)c1ccccc1SCc1c(O[C@H](Cn2ccnc2)c2ccccc2)ccc2c1CCCC2=O [Compound 173, N-(2-Hydroxyethyl)-2-{[(2-{[(1S)-2-(1H-imidazol-1-yl)-1-phenylethyl]oxy}-5-oxo-5,6,7,8-tetrahydro-1-naphthalenyl)methyl]sulfanyl}benzamide]",4 nM
11,O=C1CCCc2c1ccc(O[C@H](Cn1ccnc1)c1ccccc1)c2COc1cccc(Cl)c1 [Compound 69],0.7 nM
12,"O=C(NC(CO)CO)c1ccc(S(=O)(=O)Cc2c(O[C@H](Cn3ccnc3)c3ccccc3)ccc3c2CCCC3=O)cc1 [Compound 235, N-[2-Hydroxy-1-(hydroxymethyl)ethyl]-4-{[(2-{[(1S)-2-(1H-imidazol-1-yl)-1-phenylethyl]oxy}-5-oxo-5,6,7,8-tetrahydro-1-naphthalenyl)methyl]sulfonyl}benzamide]",15 nM
13,"O=C(NC(CO)CO)c1ccccc1S(=O)(=O)Cc1c(O[C@H](Cn2ccnc2)c2ccccc2)ccc2c1CCCC2=O [Compound 237, N-[2-Hydroxy-1-(hydroxymethyl)ethyl]-2-{[(2-{[(1S)-2-(1H-imidazol-1-yl)-1-phenylethyl]oxy}-5-oxo-5,6,7,8-tetrahydro-1-naphthalenyl)methyl]sulfonyl}benzamide]",0.28 nM
14,"CNC(=O)c1ccc(SCc2c(O[C@H](Cn3ccnc3)c3ccccc3)ccc3c2CCCC3=O)cc1 [Compound 191, 4-{[(2-{[(1S)-2-(1H-Imidazol-1-yl)-1-phenylethyl]oxy}-5-oxo-5,6,7,8-tetrahydro-1-naphthalenyl)methyl]sulfanyl}-N-methylbenzamide]",2 nM
15,O=C1CCCc2c1ccc(O[C@H](Cn1ccnc1)c1ccccc1)c2CCc1ccccc1 [Compound 20],0.4 nM
16,"O=C1CCCc2c1ccc(O[C@H](Cn1ccnc1)c1ccccc1)c2Br [Compound 34, 6-((1S)-2-Imidazolyl-1-phenylethoxy)-5-bromo-2,3,4-trihydronaphthalen-1-one]",25 nM
17,CC[C@H](C)CNC(=O)c1ccccc1S(=O)(=O)Cc1c(O[C@H](Cn2ccnc2)c2ccccc2)ccc2c1CCCC2=O [Compound 249],0.25 nM
18,"COC(=O)c1ccc(N(C)Cc2c(O[C@H](Cn3ccnc3)c3ccccc3)ccc3c2CCCC3=O)cc1 [Compound 13, Methyl 4-({[2-((1S)-2-imidazolyl-1-phenylethoxy)-5-oxo(6,7,8-trihydronaphthyl)]methyl}methylamino)benzoate]",2 nM
19,"O=C1CCCc2c1ccc(O[C@H](Cn1ccnc1)c1ccccc1)c2COc1ccccc1 [Compound 66, 6-((1S)-2-Imidazolyl-1-phenylethoxy)-5-(phenoxymethyl)-2,3,4-trihydronaphthalen-1-one]",12 nM
20,"CNC(=O)c1ccccc1SCc1c(O[C@H](Cn2ccnc2)c2ccccc2)ccc2c1CCCC2=O [Compound 193, 2-{[(2-{[(1S)-2-(1H-Imidazol-1-yl)-1-phenylethyl]oxy}-5-oxo-5,6,7,8-tetrahydro-1-naphthalenyl)methyl]sulfanyl}-N-methylbenzamide]",5 nM
21,"O=C(NC(CO)CO)c1ccccc1SCc1c(O[C@H](Cn2ccnc2)c2ccccc2)ccc2c1CCCC2=O [Compound 232, N-[2-Hydroxy-1-(hydroxymethyl)ethyl]-2-{[(2-{[(1S)-2-(1H-imidazol-1-yl)-1-phenylethyl]oxy}-5-oxo-5,6,7,8-tetrahydro-1-naphthalenyl)methyl]sulfanyl}benzamide]",0.2 nM
22,O=C1CCCc2c1ccc(O[C@H](Cn1ccnc1)c1ccccc1)c2CS(=O)(=O)c1ccccc1 [Compound 3],0.3 nM
23,"CCCOCc1c(O[C@H](Cn2ccnc2)c2ccccc2)ccc2c1CCCC2=O [Compound 19b, 6-((S)-2-Imidazol-1-yl-1-phenyl-ethoxy)-5-propoxymethyl-3,4-dihydro-2H-naphthalen-1-one]",3.6 nM
24,"O=C(O)c1cccnc1SCc1c(O[C@H](Cn2ccnc2)c2ccccc2)ccc2c1CCCC2=O [Compound 126, 2-{[2-((1S)-2-Imidazolyl-1-phenylethoxy)-5-oxo-6,7,8-trihydronaphenyl]methylthio}pyridine-3-carboxylic acid]",19 nM
25,"O=C1CCCc2c1ccc(O[C@H](Cn1ccnc1)c1ccccc1)c2-c1ccc2c(c1)OCO2 [Compound 21, 5-(2H-Benzo[d]-1,3-dioxolan-5-yl)-6-((1S)-2-imidazolyl-1-phenylethoxy)-2,3,4-trihydronaphthalen-1-one]",8 nM
26,"COC(=O)c1ccc(SCc2c(O[C@H](Cn3ccnc3)c3ccccc3)ccc3c2CCCC3=O)cc1 [Compound 157, Methyl 4-{[(2-{[(1S)-2-(1H-Imidazol-1-yl)-1-phenylethyl]oxy}-5-oxo-5,6,7,8-tetrahydro-1-naphthalenyl)methyl]sulfanyl}benzoate]",4 nM
27,"O=C1CCCc2c1ccc(O[C@H](Cn1ccnc1)c1ccccc1)c2CCc1cccc[n+]1[O-] [Compound 25, 6-((1S)-2-Imidazolyl-1-phenylethoxy)-5-[2-(1-oxy(2-pyridyl))ethyl]-2,3,4-trihydronaphthalen-1-one]",5 nM

# Next, values leading:
row,IC50,Compound
1,0.94 nM,"CC(C)S(=O)(=O)Cc1c(O[C@H](Cn2ccnc2)c2cccnc2)ccc2c1CCCC2=O [Compound 63b, 6-((S)-2-Imidazol-1-yl-1-pyridin-3-yl-ethoxy)-5-(propane-2-sulfonylmethyl)-3,4-dihydro-2H-napthalen-1-one]"
2,5 nM,O=C1CCCc2c1ccc(O[C@H](Cn1ccnc1)c1ccccc1)c2CCc1cc[n+]([O-])cc1 [Compound 26a]
3,0.2 nM,"O=C1CCCc2c1ccc(O[C@H](Cn1ccnc1)c1ccccc1)c2CCc1cncc2ccccc12 [Compound 26c, (S)-6-(-2-Imidazol-1-yl-1-phenyl-ethoxy)-5-(2-isoquinolin-4-yl-ethyl)-3,4-dihydro-2H-naphthalen-1-one]"
4,1.6 nM,"CC(C)(Cn1ccnc1)Oc1ccc2c(c1CCc1ccccc1)CCCC2=O [Compound 58a, 6-[2-(1H-Imidazol-1-yl)-1,1-dimethylethoxy]-5-(2-phenylethyl)-3,4-dihydro-1(2H)-naphthalenone]"
5,0.5 nM,"O=C1CCCc2c1ccc(OC(Cn1ccnc1)c1nccs1)c2CS(=O)(=O)c1ccccn1 (stereo not drawn) [Compound 63q, 6-(2-Imidazol-1-yl-1-thiazol-2-yl-ethoxy)-5-(pyridine-2-sulfonylmethyl)-3,4-dihydro-2H-naphthalen-1-one]"
6,9.7 nM,"O=C(Nc1c(O[C@H](Cn2ccnc2)c2cccnc2)ccc2c1CCCC2=O)c1cnccn1 [Compound 63e, Pyrazine-2-carboxylic acid [2-((S)-2-imidazol-1-yl-1-pyridin-3-yl-ethoxy)-5-oxo-5,6,7,8-tetrahydro-naphthalen-1-yl]-amide]"
7,0.55 nM,"O=C1CCCc2c1ccc(OC(Cn1ccnc1)c1cccs1)c2CS(=O)(=O)c1ccccn1 (stereo not drawn) [Compound 63p, 6-(2-Imidazol-yl-1-thiophen-2-yl-ethoxy)-5-(pyridine-2-sulfonylmethyl)-3,4-dihydro-2H-naphthalen-1-one]"
8,13 nM,"O=C(Nc1c(O[C@H](Cn2ccnc2)c2ccccc2)ccc2c1CCCC2=O)c1cccnc1Oc1ccccc1 [Compound 40f, N-[2-((S)-2-Imidazol-1-yl-1-phenyl-ethoxy)-5-oxo-5,6,7,8-tetrahydro-naphthalen-4-1-yl]-2-phenoxy-nicotinamide]"
9,2.5 nM,"O=C(Nc1c(O[C@H](Cn2ccnc2)c2ccccc2)ccc2c1CCCC2=O)c1cccnc1Cl [Compound 40e, N-[2-((S)-2-Imidazol-1-yl-1-phenyl-ethoxy)-5-oxo-5,6,7,8-tetrahydro-naphthalen-1-yl]-2-chloro-nicotinamide]"
